Patent US4384118A, “4-(3-Iodopropargyloxy) pyrimidine derivatives” (SPOFA, spojene podniky pro zdravotnickou vyrobu, priority 1980, dated 1983)
Converted amounts (≈) assume the structure as drawn. Like-named read-outs stand apart in the source and are kept apart here. One block for each compound: values may come before it.

Key:
Type in all cases: cell-based
[1] = system: Trichophyton Mentagrophytes; assay: Minimum inhibitory concentration vs Trichophyton Mentagrophytes; settings: for activity against Trichophyton mentagrophytes compared with known antimycotic agents: comparison with best antimycotic agents previously known; for activity against Trichophyton mentagrophytes (in words): same range as the minimum inhibitory concentrations in Aspergillus niger, 0.3 to 0.7 μg/ml; for MIC: Table A, TM = Trichophyton Mentagrophytes, read-out: Minimum Inhibitory Concentrations
Source text: (§1) For comparative purposes, three of the compounds of formula (1) were compared with Clotrimazole and Haloprogine, well known prior art antimycotic compounds. Comparisons of minimum inhibitory concentration in μg/ml. were made with respect to four strains of […].

Sacharomyces Pastorianus = assay: Minimum inhibitory concentration vs Sacharomyces Pastorianus; settings: Table A, SP = Sacharomyces Pastorianus; read-out: Minimum Inhibitory Concentrations
Source text: as §1

Candida Alicans = assay: Minimum inhibitory concentration vs Candida Alicans; settings: Table A, CA = Candida Alicans; read-out: Minimum Inhibitory Concentrations
Source text: as §1

Aspergillus Niger = assay: Minimum inhibitory concentration vs Aspergillus Niger
Source text: as §1

[2] = system: Trichophyton schoenleinii; assay: Minimum inhibitory concentration vs Trichophyton schoenleinii; settings: Table B
Experimental: (§2) Additionally, certain compounds of the invention were evaluated with respect to other mold species. Thus, for example, 2-ethylthio-4-(3 iodopropargyloxy) pyrimidine was evaluated with respect to the species identified in Table B, below and the noted minimum inhibitory cencentrations determined: […]

Sporotrichum cejpii = assay: Minimum inhibitory concentration vs Sporotrichum cejpii; settings: Table B
Experimental: as §2

Keratinomyces ajelloi = assay: Minimum inhibitory concentration vs Keratinomyces ajelloi; settings: Table B
Experimental: as §2

Microsporum Canis = assay: Minimum inhibitory concentration vs Microsporum Canis; settings: Table B
Experimental: as §2

Trichophyton verrucosum = assay: Minimum inhibitory concentration vs Trichophyton verrucosum; settings: Table B
Experimental: as §2

Microsporum gypseum = assay: Minimum inhibitory concentration vs Microsporum gypseum; settings: Nannizzia gypsea, Table B
Experimental: as §2

Epidermophyton floccosum = assay: Minimum inhibitory concentration vs Epidermophyton floccosum; settings: Table B
Experimental: as §2

Trichophyton rubrum = assay: Minimum inhibitory concentration vs Trichophyton rubrum; settings: Table B
Experimental: as §2

[3] = Table A, AN = Aspergillus Niger, read-out: Minimum Inhibitory Concentrations
[4] = Aspergillus niger, read-out: minimum inhibitory concentration

SMILES: COc1cnc(SC)nc1OCC#CI [2-methylthio-5-methoxy-4-(3-iodopropargyloxy) pyrimidine]
activity against Trichophyton mentagrophytes compared with known antimycotic agents [1]: comparable with that of the best antimycotic agents previously known
activity against Trichophyton mentagrophytes (in words) [1]: lies in the same range

SMILES: COc1cnc(N)nc1OCC#CI [2-amino-5-methoxy-4-(3-iodopropargyloxy) pyrimidine]
activity against Trichophyton mentagrophytes compared with known antimycotic agents [1]: comparable with that of the best antimycotic agents previously known
activity against Trichophyton mentagrophytes (in words) [1]: lies in the same range

SMILES: Clc1ccccc1C(c1ccccc1)(c1ccccc1)n1ccnc1 [Clotrimazole, reference compound]
MIC (Sacharomyces Pastorianus): 3.1 µg/mL (≈ 8.99 µM)
MIC (Candida Alicans): 0.3 µg/mL (≈ 0.87 µM)
MIC [1]: 0.03 µg/mL (≈ 0.087 µM)
MIC (Aspergillus Niger; [3]): 3.1 µg/mL (≈ 8.99 µM)

SMILES: C=CCSc1nccc(OCC#CI)n1 [Compound II, 2allylthio-4-(3-iodopropargyloxy) pyrimidine]
MIC (Sacharomyces Pastorianus): 0.15 µg/mL (≈ 0.452 µM)
MIC (Candida Alicans): 0.7 µg/mL (≈ 2.11 µM)
MIC [1]: 0.07 µg/mL (≈ 0.211 µM)
MIC (Aspergillus Niger; [3]): 0.3 µg/mL (≈ 0.903 µM)

SMILES: CSc1nccc(OCC#CI)n1 [2-methylthio-4-(3-iodopropargyloxy) pyrimidine]
activity against Trichophyton mentagrophytes compared with known antimycotic agents [1]: comparable with that of the best antimycotic agents previously known
activity against Trichophyton mentagrophytes (in words) [1]: lies in the same range

SMILES: CCSc1nccc(OCC#CI)n1 [2-ethylthio-4-(3 iodopropargyloxy) pyrimidine]
MIC [2]: 0.03 µg/mL (≈ 0.0937 µM)
MIC (Sporotrichum cejpii): 0.3 µg/mL (≈ 0.937 µM)
MIC (Keratinomyces ajelloi): 0.3 µg/mL (≈ 0.937 µM)
MIC (Microsporum Canis): 0.15 µg/mL (≈ 0.469 µM)
MIC (Trichophyton verrucosum): 0.15 µg/mL (≈ 0.469 µM)
MIC (Microsporum gypseum): 0.3 µg/mL (≈ 0.937 µM)
MIC (Epidermophyton floccosum): 0.3 µg/mL (≈ 0.937 µM)
MIC (Trichophyton rubrum): 0.07 µg/mL (≈ 0.219 µM)

SMILES: Clc1cc(Cl)c(OCC#CI)cc1Cl [Haloprogine, reference compound]
MIC (Candida Alicans): 1.2 µg/mL (≈ 3.32 µM)
MIC [1]: 0.6 µg/mL (≈ 1.66 µM)

Further lines, results first:

MIC (Sacharomyces Pastorianus): 0.3 µg/mL (≈ 0.824 µM)
MIC (Candida Alicans): 3.1 µg/mL (≈ 8.51 µM)
MIC [1]: 0.07 µg/mL (≈ 0.192 µM)
MIC (Aspergillus Niger; [3]): 0.01 µg/mL (≈ 0.0275 µM)
SMILES: CCCSc1ncc(OC)c(OCC#CI)n1 [Compound I, 2 propylthio5-methoxy-4-(3 iodoprogargyloxy) pyrimidine]

MIC (Aspergillus Niger; [4]): 0.07 µg/mL (≈ 0.2 µM)
SMILES: CCOc1cnc(SC)nc1OCC#CI [2-methylthio-5-ethoxy-4-(3-iodopropargyloxy) pyrimidine]

MIC (Aspergillus Niger; [4]): 0.01 µg/mL (≈ 0.026 µM)
SMILES: CSc1ncc(Br)c(OCC#CI)n1 [2-methylthio-5-bromo-4-(3-iodopropargyloxy) pyrimidine]

MIC (Aspergillus Niger; [4]): 0.03 µg/mL (≈ 0.0857 µM)
SMILES: CCSc1ncc(OC)c(OCC#CI)n1 [2-ethylthio-5-methoxy-4-(3-iodopropargyloxy) pyrimidine]
